Data on 35 molecules can be found in patent publication US10961200B2, “Small molecule inhibitors of lactate dehydrogenase and methods of use thereof” (THE UNITED STATES OF AMERICA, AS REPRESENTED BY THE …, priority 2014, dated 2021).

One assay has as its target Human LDHA (Homo sapiens (Human), UniProt P00338). Kind of assay: human LDHA primary biochemical assay (resazurin/diaphorase coupled, fluorescence). Conditions: LDHA inhibitory activity, assay of Example 1; activity level classes. An excerpt: Test compounds were placed in a Greiner Bio-One (Monroe, N.C.) 1536-well black solid bottom assay plate. 200 millimolar (mM) Tris HCl, pH 7.4, 100 micromolar […] EDTA and 0.01% TWEEN-20™, final concentration, was used as the assay buffer. The LDHA reagent was 2 nanomolar (nM) Human LDHA (Meridian Life Science, Inc., Memphis, Tenn.), final concentration, in assay buffer.
In general terms: Alamar Blue is a resazurin reagent that responds to reducing activity.
What is called IC50 is the concentration at which inhibition is half-maximal. In the case of `O=C(O)c1csc(-n2nc(-c3ccc(F)c(F)c3)cc2C(=O)O)n1` [Compound 71, 2-(5-carboxy-3-(3,4-difluorophenyl)-1H-pyrazol-1-yl)thiazole-4-carboxylic acid], the IC50 was greater than 57 µM.

Take `NS(=O)(=O)c1ccc(Cc2c(-c3cccc4ccccc34)nn(-c3nc(C(=O)O)cs3)c2O)cc1` [Compound 81, 2-(5-hydroxy-3-(naphthalen-1-yl)-4-(4-sulfamoylbenzyl)-1H-pyrazol-1-yl)thiazole-4-carboxylic acid]: the IC50 fell in the range of 1 to 57 µM.

On to `NS(=O)(=O)c1ccc(Cc2c(-c3cccnc3)nn(-c3nc(C(=O)O)cs3)c2O)cc1` [Compound 82, 2-(5-hydroxy-3-(pyridin-3-yl)-4-(4-sulfamoylbenzyl)-1H-pyrazol-1-yl)thiazole-4-carboxylic acid], for which the IC50 was 1 to 57 µM.

In the case of `NS(=O)(=O)c1ccc(Cc2c(-c3cccc4cc(F)ccc34)nn(-c3nc(C(=O)O)cs3)c2O)cc1` [Compound 89, 2-(3-(6-fluoronaphthalen-1-yl)-5-hydroxy-4-(4-sulfamoylbenzyl)-1H-pyrazol-1-yl)thiazole-4-carboxylic acid], the IC50 is greater than 57 µM.

In the case of `CS(=O)(=O)c1cccc(-c2cc(O)n(-c3nc(C(=O)O)cs3)n2)c1` [Compound 92, 2-(5-hydroxy-3-(3-(methylsulfonyl)phenyl)-1H-pyrazol-1-yl)thiazole-4-carboxylic acid], the IC50 is greater than 57 µM.

Consider `O=C(O)c1csc(-n2nc(-c3cccc(N4CCOCC4)c3)cc2O)n1` [Compound 93, 2-(5-hydroxy-3-(3-morpholinophenyl)-1H-pyrazol-1-yl)thiazole-4-carboxylic acid], for which the IC50 was greater than 57 µM.

`CS(=O)(=O)c1cc(-c2cc(O)n(-c3nc(C(=O)O)cs3)n2)ccc1F` [Compound 94, 2-(3-(4-fluoro-3-(methylsulfonyl)phenyl)-5-hydroxy-1H-pyrazol-1-yl)thiazole-4-carboxylic acid] showed an IC50 greater than 57 µM.

For `O=C(O)c1csc(-n2nc(-c3cc(F)cc(F)c3)cc2O)n1` [Compound 95, 2-(3-(3,5-difluorophenyl)-5-hydroxy-1H-pyrazol-1-yl)thiazole-4-carboxylic acid], the IC50 is greater than 57 µM.

With `O=C(O)c1csc(-n2nc(-c3cccc(F)c3F)cc2O)n1` [Compound 96, 2-(3-(2,3-difluorophenyl)-5-hydroxy-1H-pyrazol-1-yl)thiazole-4-carboxylic acid], the IC50 is greater than 57 µM.

Molecule `CCOC(=O)OC(C)OC(=O)c1csc(-n2nc(-c3ccc(F)c(F)c3)cc2OC(C)OC(=O)OCC)n1` (centres unmarked) [Compound 98, 1-((ethoxycarbonyl)oxy)ethyl 2-(3-(3,4-difluorophenyl)-5-(1-((ethoxycarbonyl)oxy)ethoxy)-1H-pyrazol-1-yl)thiazole-4-carboxylate] showed an IC50 greater than 57 µM.

Molecule `O=C(O)c1csc(-n2nc(-c3c(F)cccc3F)cc2O)n1` [Compound 100, 2-(3-(2,6-difluorophenyl)-5-hydroxy-1H-pyrazol-1-yl)thiazole-4-carboxylic acid] returned an IC50 greater than 57 µM.

As for `O=C(O)c1csc(-n2nc(-c3cc(F)ccc3F)cc2O)n1` [Compound 102, 2-(3-(2,5-difluorophenyl)-5-hydroxy-1H-pyrazol-1-yl)thiazole-4-carboxylic acid], the half-inhibitory concentration (IC50) was greater than 57 µM.

On to `CS(=O)(=O)Nc1cc(-c2cc(O)n(-c3nc(C(=O)O)cs3)n2)ccc1F` [Compound 103, 2-(3-(4-fluoro-3-(methylsulfonamido)phenyl)-5-hydroxy-1H-pyrazol-1-yl)thiazole-4-carboxylic acid], for which the IC50 is greater than 57 µM.

In turn, `O=C(O)c1csc(-n2nc(-c3ccc(F)c(Cc4ccccc4)c3)cc2O)n1` [Compound 104, 2-(3-(3-benzyl-4-fluorophenyl)-5-hydroxy-1H-pyrazol-1-yl)thiazole-4-carboxylic acid] came in with an IC50 greater than 57 µM.

Molecule `CCOC(=O)OC(C)OC(=O)c1csc(-n2nc(-c3ccc(F)c(F)c3)cc2O)n1` (centres unmarked) [Compound 105, 1-((ethoxycarbonyl)oxy)ethyl 2-(3-(3,4-difluorophenyl)-5-hydroxy-1H-pyrazol-1-yl)thiazole-4-carboxylate] returned an IC50 greater than 57 µM.

The same assay, now with this note: read-out: Inhibitory activity IC50.
As to `O=C(O)c1ccc(Cc2c(-c3cccc(-c4ccccc4)c3)nn(-c3nc(C(=O)O)cs3)c2O)cc1` [Compound 68, 2-(3-([1,1′-biphenyl]-3-yl)-4-(4-carboxybenzyl)-5-hydroxy-1H-pyrazol-1-yl)thiazole-4-carboxylic acid], the IC50 was greater than 57 µM.

On to `NC(=O)c1csc(-n2nc(-c3cccc(-c4ccccc4)c3)c(Cc3ccc(S(N)(=O)=O)cc3)c2O)n1` [Compound 70, 2-(3-([1,1′-biphenyl]-3-yl)-5-hydroxy-4-(4-sulfamoylbenzyl)-1H-pyrazol-1-yl)thiazole-4-carboxamide], for which the IC50 is greater than 57 µM.

Consider `NS(=O)(=O)c1ccc(Cc2c(-c3cccc(-c4ccccc4)c3)nn(-c3nc(-c4nnn[nH]4)cs3)c2O)cc1` [Compound 72, 4-((1-(4-(1H-tetrazol-5-yl)thiazol-2-yl)-3-([1,1′-biphenyl]-3-yl)-5-hydroxy-1H-pyrazol-4-yl)methyl)benzenesulfonamide], for which the concentration for half-maximal inhibition (IC50) is 1 to 57 µM.

Regarding `CCOC(=O)c1csc(-n2nc(-c3cccc(-c4ccccc4)c3)c(Cc3ccc(S(N)(=O)=O)cc3)c2O)n1` [Compound 73, ethyl 2-(3-([1,1′-biphenyl]-3-yl)-5-hydroxy-4-(4-sulfamoylbenzyl)-1H-pyrazol-1-yl)thiazole-4-carboxylate], the concentration for half-maximal inhibition (IC50) lay within 1 to 57 µM.

In the case of `N#CCc1cc(-c2ccc(F)c(F)c2)nn1-c1nc(C(=O)O)cs1` [Compound 74, 2-(5-(cyanomethyl)-3-(3,4-difluorophenyl)-1H-pyrazol-1-yl)thiazole-4-carboxylic acid], the IC50 is 1 to 57 µM.

On to `O=C(O)c1csc(-n2nc(-c3ccc(F)c(F)c3)cc2Cc2nnn[nH]2)n1` [Compound 75, 2-(5-((1H-tetrazol-5-yl)methyl)-3-(3,4-difluorophenyl)-1H-pyrazol-1-yl)thiazole-4-carboxylic acid], for which the IC50 fell in the range of 1 to 57 µM.

In the case of `NS(=O)(=O)c1ccc(-c2cn(-c3nc(C(=O)O)cs3)nc2-c2ccccc2)cc1` [Compound 76, 2-(3-phenyl-4-(4-sulfamoylphenyl)-1H-pyrazol-1-yl)thiazole-4-carboxylic acid], the IC50 was in the range of 1 to 57 µM.

For the molecule `CCOC(=O)c1csc(-n2nc(-c3ccccc3)c(Cc3ccc(S(N)(=O)=O)cc3)c2C(F)(F)F)n1` [Compound 77, ethyl 2-(3-phenyl-4-(4-sulfamoylbenzyl)-5-(trifluoromethyl)-1H-pyrazol-1-yl)thiazole-4-carboxylate], the half-inhibitory concentration (IC50) is 1 to 57 µM.

As to `NC(=O)c1csc(-n2nc(-c3ccccc3)c(Cc3ccc(S(N)(=O)=O)cc3)c2I)n1` [Compound 78, 2-(5-iodo-3-phenyl-4-(4-sulfamoylbenzyl)-1H-pyrazol-1-yl)thiazole-4-carboxamide], the IC50 is 1 to 57 µM.

As to `NC(=O)c1csc(-n2cc(Cc3ccc(S(N)(=O)=O)cc3)c(-c3ccccc3)n2)n1` [Compound 79, 2-(3-phenyl-4-(4-sulfamoylbenzyl)-1H-pyrazol-1-yl)thiazole-4-carboxamide], the IC50 was in the range of 1 to 57 µM.

On to `NS(=O)(=O)c1ccc(Cc2c(-c3ccccc3)nn(-c3nc(C(=O)O)cs3)c2Nc2cccnc2)cc1` [Compound 80, 2-(3-phenyl-5-(pyridin-3-ylamino)-4-(4-sulfamoylbenzyl)-1H-pyrazol-1-yl)thiazole-4-carboxylic acid], for which the IC50 was 1 to 57 µM.

`Nc1c(Cc2ccc(S(N)(=O)=O)cc2)c(-c2ccccc2)nn1-c1ccc(Cl)nn1` [Compound 83, 4-((5-amino-1-(6-chloropyridazin-3-yl)-3-phenyl-1H-pyrazol-4-yl)methyl)benzenesulfonamide]: the IC50 was 1 to 57 µM.

In the case of `Cc1cccc(C(=O)n2nc(-c3ccccc3)c(Cc3ccc(S(N)(=O)=O)cc3)c2N)c1` [Compound 84, 4-((5-amino-1-(3-methylbenzoyl)-3-phenyl-1H-pyrazol-4-yl)methyl)benzenesulfonamide], the IC50 was 1 to 57 µM.

Regarding `Nc1c(Cc2ccc(S(N)(=O)=O)cc2)c(-c2ccccc2)nn1C(=O)c1cccc(F)c1` [Compound 85, 4-((5-amino-1-(3-fluorobenzoyl)-3-phenyl-1H-pyrazol-4-yl)methyl)benzenesulfonamide], the concentration for half-maximal inhibition (IC50) was in the range of 1 to 57 µM.

Consider `Cc1csc(-n2nc(-c3ccccc3)c(Cc3ccc(S(N)(=O)=O)cc3)c2N)n1` [Compound 86, 4-((5-amino-1-(4-methylthiazol-2-yl)-3-phenyl-1H-pyrazol-4-yl)methyl)benzenesulfonamide], for which the IC50 fell in the range of 1 to 57 µM.

As to `NS(=O)(=O)c1ccc(Cc2c(-c3ccccc3)nn(-c3nc(C(=O)O)cs3)c2Cc2nnn[nH]2)cc1` [Compound 87, 2-(5-((1H-tetrazol-5-yl)methyl)-3-phenyl-4-(4-sulfamoylbenzyl)-1H-pyrazol-1-yl)thiazole-4-carboxylic acid], the IC50 lay within 1 to 57 µM.

Take `NS(=O)(=O)c1ccc(Cc2c(-c3ccccc3)nn(-c3nc(CO)cs3)c2C(F)(F)F)cc1` [Compound 88, 4-((1-(4-(hydroxymethyl)thiazol-2-yl)-3-phenyl-5-(trifluoromethyl)-1H-pyrazol-4-yl)methyl)benzenesulfonamide]: the IC50 was in the range of 1 to 57 µM.

For `NS(=O)(=O)N1CCN(Cc2cn(-c3nc(C(=O)O)cs3)nc2-c2ccccc2)CC1` [Compound 90, 2-(3-phenyl-4-((4-sulfamoylpiperazin-1-yl)methyl)-1H-pyrazol-1-yl)thiazole-4-carboxylic acid], the IC50 is 1 to 57 µM.

As for `O=C(O)c1csc(-n2nc(-c3ccccc3)cc2O)n1` [Compound 91, 2-(5-hydroxy-3-phenyl-1H-pyrazol-1-yl)thiazole-4-carboxylic acid], the IC50 is greater than 57 µM.

Take `O=C(O)c1csc(-n2nc(-c3ccc(F)cc3F)cc2O)n1` [Compound 97, 2-(3-(2,4-difluorophenyl)-5-hydroxy-1H-pyrazol-1-yl)thiazole-4-carboxylic acid]: the IC50 is greater than 57 µM.
